Experimental data from US12629352B2, “Methods and uses for apelin receptor agonists” (RESEARCH TRIANGLE INSTITUTE, priority 2019, dated 2026).

Test system: bleomycin-induced pulmonary fibrosis in male C57BL/6 mice
Test: 21-day bleomycin-induced lung fibrosis model, prophylactic BID oral treatment
Type: in vivo
Conditions: for Ashcroft score index: FIG. 15A, BID treatment; for absolute lung weights / absolute lung weights vs vehicle: day 21 post-bleomycin; for absolute lung weights: ±SEM, significantly lower than vehicle (p<0.05)
Protocol: Bleomycin is widely used to induce pulmonary fibrosis in rodents in order to study potential novel therapies for fibrosis. This study was designed to evaluate the prophylactic efficacy of test compound, Compound 1, also referred to as SRRM-423, in a 21-day model of bleomycin-induced pulmonary fibrosis in male C57BL/6 mice.
Prophylactic treatment of three different doses of 30 mg/kg, 15 mg/kg, and 7.5 mg/kg of Compound 1 was commenced a day before induction of disease and continued until the end of the study, namely 21 days after bleomycin administration. Treatment was administered twice daily via oral gavage.
Mice were administered bleomycin (Catalog number C-61703-323-22, lot number D011495AA, Hospira) via oropharyngeal route to induce lung fibrosis.
Bleomycin-induced animals were treated twice daily with either of the three different doses of test compound Compound 1 or pirfenidone starting from a day prior to disease induction and continued till study termination. Study animals were harvested on day 21 post-bleomycin administration. As an end point analysis, fibrosis symptoms such as body weight, absolute lung weight, lung weight normalized to body weight, and total leukocytes in BAL fluid were evaluated and compared with vehicle-treated mice.
On day 0, all mice in groups 2-6 received a 1.5 U/kg oropharyngeal administration of bleomycin to induce pulmonary fibrosis. Animals in group 1 were not administered bleomycin, but instead received a single dose of normal saline via the oropharyngeal route, and were considered sham control mice.
Dosing was initiated one day prior to induction of disease. Animals were dosed twice daily orally with Compound 1 and Pirfenidone and treatment was continued until 21 days after bleomycin administration. Animals from group 2 were treated with vehicle (0.5% methylcellulose). Animals in groups 3, 4 and 5 received Compound 1 at 30, 15, and 7.5 mg/kg respectively, and animals in group 6 received Pirfenidone 100 mg/kg.
Surviving animals were euthanized 21 days post bleomycin administration. Animals were weighed, then blood and lungs were collected. Blood was processed for plasma. Lungs, were weighed, flushed with HBSS for BAL collection, and fixed in 10% NBF. Supernatant from BAL fluid was frozen while the pellet was used for total leukocyte cell count.
In order to induce pulmonary fibrosis, mice in groups 2-6 were administered 1.5 U/kg bleomycin (Catalog number C-61703-323-22, lot number D011495AA, Hospira) in 70 μl via oropharyngeal administration. Animals from group 1 were administered 70 μl of saline by the oropharyngeal route, instead of bleomycin, and served as sham controls.
Compound 1 was provided as a trifluoroacetic acid (TFA) salt and requires a salt correction of 1.0654. All dose amounts were calculated as the free base content of the test article using the correction factor. Vehicle used for formulation of test compound, Compound 1, was 0.3% Tween 80 and 1% N-methylpyrollidinone in 0.5% aqueous methylcellulose. Vehicle and dosing formulation of Compound 1 was prepared fresh weekly. Dosing formulations and vehicles were stored at 4±2° C. protected from heat and light. The expiration date for the test article dosing solutions were set at 7 days after preparation. Pirfenidone was sourced from a vendor and formulated in the same vehicle as Compound 1, i.e., 0.3% Tween 80 and 1% N-methylpyrollidinone in 0.5% aqueous methylcellulose.
Animals were dosed twice daily with volume of 100 μl/dose by oral gavage from a day prior to disease induction and same treatment was continued till study termination, i.e., day 21 post bleomycin administration. Surviving animals were harvested within 2 to 4 hours post final dosing on day 21.
The lungs from each animal were harvested following Aragen's Standard Operating Procedure (WA-004-01). Each lung was dissected from the animal and weighed. The BAL fluid was collected by lavaging the lung twice with 0.5 ml Hanks Balanced Salt Solution (HBSS, VWR Radnor, PA). […]

[1] = lung histopathology, dose not specified

Row | SMILES | fibrosis according to Ashcroft scores (30 mg/kg BID, compared to induced controls and to 100 mg/kg Pirfenidone) | fibrosis according to Ashcroft scores (15 or 7.5 mg/kg BID, compared to induced controls, similar to 100 mg/kg Pirfenidone BID) | average total leukocyte count in BAL fluid (30, 15 and 7.5 mg/kg BID, day 21, vs vehicle group 2, statistical significance not reached) | α-SMA positive lung tissue as a percent of the total lung parenchyma (>7.5 mg/kg, FIG. 15B, compared to induced controls, no clear relationship to the dose) | Ashcroft score index [1] | Ashcroft score of lung section (Masson's trichome staining) (FIG. 16, 30 mg mpk + bleomycin, bleomycin/no treatment similar to score 5) | α-SMA positive staining of lung section (FIG. 17, 30 mpk + bleomycin, compared to induced controls) | absolute lung weights (group 3, 30 mg/kg BID oral gavage) [mg] | absolute lung weights vs vehicle (group 4, 15 mg/kg BID oral gavage) | body weight (group 4, 15 mg/kg BID, recorded three times a week to day 21) | absolute lung weights (group 5, 7.5 mg/kg BID oral gavage) [mg] | fibrosis symptoms (body weight, lung weight, lung weight index, total leukocyte counts, myofibroblast proliferation) (highest dose of 30 mg/kg BID) | proliferation of activated myofibroblasts (antibody to α-SMA) [1] | absolute and normalized lung weights (prophylactic BID treatment, doses not distinguished) | absolute lung weights vs vehicle (group 6, 100 mg/kg BID oral gavage)
1 | O=C(O)C[C@H](CCN1CCCC(F)(F)C1)NC(=O)c1cc(-c2ccccc2C(F)(F)F)n(C2CCCC2)n1 [Compound 1, (3S)-3-({1-cyclopentyl-5-[2-(trifluoromethyl)phenyl]-1H-pyrazol-3-yl}formamido)-5-(3,3-difluoropiperidin-1-yl)pentanoic acid] | greatest reduction in fibrosis | substantially less fibrosis | reduced the average leukocyte count in BAL fluid in all test groups | substantially less α-SMA positive lung tissue | reduced Ashcroft score index | ~2 | substantially less compared to induced controls | 310 | Statistical significance was not reached | lost more weight compared to other groups | 313 | significantly ameliorated fibrosis symptoms | reduced proliferation of activated myofibroblasts | reduced absolute and normalized lung weights | 
2 | Cc1ccc(=O)n(-c2ccccc2)c1 [Pirfenidone, reference compound] |  |  |  |  | reduced Ashcroft score index |  |  |  |  |  |  |  |  |  | Statistical significance was not reached
